Among the data in patent US5891917A, “Certain acrylonitrile-sulfonamide derivatives” (Sugen, Inc., priority 1997, dated 1999) are IC50 values, retold here.

Broadly, the IC50 is the concentration that gives 50% inhibition. A high value points to weaker potency.

In one experiment the target is T1, EGFR (Homo sapiens, UniProt P00533).
T1 construct: expressed in transfected cells; host or cells: NIH3T3 clone C7 (EGFR/C7, Honegger et al.)
As to the kind of experiment: EGFR Whole Cell Kinase Assay (ELISA). In kind it is cell-based. As to conditions: EGFR/C7 (NIH3T3) cells, 25 nM EGF. The text has this:
(§1) The following examples illustrate the ability of the exemplary compounds to inhibit receptor tyrosine kinases, such as HER2 and/or EGFR. The following target cells were used for cellular kinase assays: NIH3T3 clone C7 (Honegger et al., supra) engineered to over-express human EGF receptor; NIH3T3 cells engineered to over-express a chimeric receptor containing the EGFR extracellular domain and the HER2 intracellular kinase domain; the human mammary carcinoma line BT474 (ATCC HTB2) expressing HER2; and the human glioblastoma line U1242 that expresses PDGFR-beta. Growth assays were carried out using human mammary epithelial SKBR3 (ATCC HTB30) cells (SKBR3 cells over-express HER2), SKOV3 (ATCC HTB77) human ovarian cancer cell line (SKOV3 cells also over-express HER2), A431 cells (A431 cells over-express EGFR) MCF7 human breast carcinoma cells, MCF7 cells overexpressing the HER2 kinase (MCF7-HER2), NIH3T3 cells, and NIH3T3 cells overexpressing the HER2 kinase (3T3-HER2.
EGFR Whole Cell Kinase Assay
EGFR kinase activity (EGFR-3T3 assay) in whole cells was measured as described below:
A. Coat ELISA plates (Corning, 96 well, Cat. #25805-96) with 05-101 antibody at 0.5 μg per well in PBS, 150 μl final volume/well, and store overnight at 4° C. Coated plates are good for up to 10 days when stored at 4° C.
B. On day of use, remove coating buffer and replace with blocking buffer (5% Carnation Instant NonFat Dry Milk in PBS). Incubate the plate, shaking, at room temperature (about 23° C. to 25° C.) for 30 minutes. Just prior to use, remove blocking buffer and wash plate 4 times with TBST buffer.
A. EGFR/C7 cell line (Honegger, et al., supra) can be used for this assay.
B. Choose dishes having 80-90% confluence for the experiment. Trypsinize cells and stop reaction by adding 10% CS DMEM medium. Suspend cells in DMEM medium (10% CS DMEM medium) and centrifuge once at 1000 rpm, and once at room temperature for 5 minutes.
(§2) C. Resuspend cells in seeding medium (DMEM, 0.5% bovine serum), and count the cells using trypan blue. Viability above 90% is acceptable. Seed cells in DMEM medium (0.5% bovine serum) at a density of 10,000 cells per well, 100 μl per well, in a 96 well microtiter plate. Incubate seeded cells in 5% CO2 at 37° C. for about 40 hours.
A. Check seeded cells for contamination using an inverted microscope. Dilute drug stock (10 mg/ml in DMSO) 1:10 in DMEM medium, then transfer 5 μl to a test well for a final drug dilution of 1:200 and a final DMSO concentration of […]. Control wells receive DMSO alone. Incubate in 5% CO2 at 37° C. for one hour.
B. Prepare EGF ligand: dilute stock EGF in DMEM so that upon transfer of 10 μl dilute EGF (1:12 dilution), 25 nM final concentration is attained.
D. After two hours incubation with drug, add prepared EGF ligand to cells, 10 μl per well, to yield a final concentration of 25 nM. Control wells receive DMEM alone. Incubate, shaking, at room temperature, for 5 minutes.
(§3) E. Remove drug, EGF, and DMEM. Wash cells twice with PBS. Transfer HNTG* to cells, 100 μl per well. Place on ice for 5 minutes. Meanwhile, remove blocking buffer from other ELISA plate and wash with TBST as described above.
(§4) F. With a pipette tip securely fitted to a micropipettor, scrape cells from plate and homogenize cell material by repeatedly aspirating and dispensing the HNTG* lysis buffer. Transfer lysate to a coated, blocked, and washed ELISA plate. Incubate shaking at room temperature for one hour.
(§5) G. Remove lysate and wash 4 times with TBST. Transfer freshly diluted anti-Ptyr antibody to ELISA plate at 100 μl per well. Incubate shaking at room temperature for 30 minutes in the presence of the anti-Ptyr antiserum (1:3000 dilution in TBST).
H. Remove the anti-Ptyr antibody and wash 4 times with TBST. Transfer the freshly diluted TAGO 30 anti-rabbit IgG antibody (anti-rabbit IgG antibody: 1:3000 dilution in TBST) to the ELISA plate at 100 μl per well. Incubate shaking at room temperature for 30 minutes. […]
On the technique in general: An ELISA detects its analyte on a solid surface through an enzyme-linked reagent.

Experiment [1] concerns chimeric receptor containing the EGFR extracellular domain and the HER2 intracellular kinase domain. Description: EGFR-HER2 chimeric receptor whole cell kinase ELISA (3T3). Type of experiment: cell-based. As to conditions: NIH3T3 cells with EGFR/HER2 chimera, 100 nM EGF.
From the text: as §1
EGFR-HER2 Chimeric Recetor
HER2 kinase activity (EGFR-3T3) in whole cells was measured as described below:
The materials and regeants are identical to these used in example 1, the EGFR whole cell kinase assay.
A. Coat ELISA plates (Corning, 96 well, Cat. #25805-96) with 05-101 antibody at 0.5 μg per well in PBS, 100 μl final volume/well, and store overnight at 4° C. Coated plates are good for up to 10 days when stored at 4° C.
B. On day of use, remove coating buffer and replace with 100 μl blocking buffer (5% Carnation Instant Non-Fat Dry Milk in PBS). Incubate the plate, shaking, at room temperature (about 23° C. to 25° C.) for 30 minutes. Just prior to use, remove blocking buffer and wash plate 4 times with TBST buffer.
A. An NIH3T3 cell line overexpressing a chimeric receptor containing the EGFR extracellular domain and extracellular HER2 kinase domain can be used for this assay.
B. Choose dishes having 80-90% confluence for the experiment. Trypsinize cells and stop reaction by adding 10% fetal bovine serum. Suspend cells in DMEM medium (10% CS DMEM medium) and centrifuge once at 1500 rpm, at room temperature for 5 minutes.
as §2
A. Check seeded cells for contamination using an inverted microscope. Dilute drug stock (10 mg/ml in DMSO) 1:10 in DMEM medium, then transfer 5 l to a […] well for a final drug dilution of 1:200 and a final DMSO concentration of 1%. Control wells receive DMSO alone. Incubate in 5% CO2 at 37° C. for two hours.
B. Prepare EGF ligand: dilute stock EGF in DMEM so that upon transfer of 10 μl dilute EGF (1:12 dilution), 100 nM final concentration is attained.
D. After 120 minutes incubation with drug, add prepared […] ligand to cells, 10 μl per well, to a final concentration of 100 nM. Control wells receive DMEM alone. Incubate, shaking, at room temperature, for 5 minutes.
as §3, §4, §5
H. Remove the anti-Ptyr antibody and wash 4 times with TBST. […]

T1 sequence (P00533 25-1210): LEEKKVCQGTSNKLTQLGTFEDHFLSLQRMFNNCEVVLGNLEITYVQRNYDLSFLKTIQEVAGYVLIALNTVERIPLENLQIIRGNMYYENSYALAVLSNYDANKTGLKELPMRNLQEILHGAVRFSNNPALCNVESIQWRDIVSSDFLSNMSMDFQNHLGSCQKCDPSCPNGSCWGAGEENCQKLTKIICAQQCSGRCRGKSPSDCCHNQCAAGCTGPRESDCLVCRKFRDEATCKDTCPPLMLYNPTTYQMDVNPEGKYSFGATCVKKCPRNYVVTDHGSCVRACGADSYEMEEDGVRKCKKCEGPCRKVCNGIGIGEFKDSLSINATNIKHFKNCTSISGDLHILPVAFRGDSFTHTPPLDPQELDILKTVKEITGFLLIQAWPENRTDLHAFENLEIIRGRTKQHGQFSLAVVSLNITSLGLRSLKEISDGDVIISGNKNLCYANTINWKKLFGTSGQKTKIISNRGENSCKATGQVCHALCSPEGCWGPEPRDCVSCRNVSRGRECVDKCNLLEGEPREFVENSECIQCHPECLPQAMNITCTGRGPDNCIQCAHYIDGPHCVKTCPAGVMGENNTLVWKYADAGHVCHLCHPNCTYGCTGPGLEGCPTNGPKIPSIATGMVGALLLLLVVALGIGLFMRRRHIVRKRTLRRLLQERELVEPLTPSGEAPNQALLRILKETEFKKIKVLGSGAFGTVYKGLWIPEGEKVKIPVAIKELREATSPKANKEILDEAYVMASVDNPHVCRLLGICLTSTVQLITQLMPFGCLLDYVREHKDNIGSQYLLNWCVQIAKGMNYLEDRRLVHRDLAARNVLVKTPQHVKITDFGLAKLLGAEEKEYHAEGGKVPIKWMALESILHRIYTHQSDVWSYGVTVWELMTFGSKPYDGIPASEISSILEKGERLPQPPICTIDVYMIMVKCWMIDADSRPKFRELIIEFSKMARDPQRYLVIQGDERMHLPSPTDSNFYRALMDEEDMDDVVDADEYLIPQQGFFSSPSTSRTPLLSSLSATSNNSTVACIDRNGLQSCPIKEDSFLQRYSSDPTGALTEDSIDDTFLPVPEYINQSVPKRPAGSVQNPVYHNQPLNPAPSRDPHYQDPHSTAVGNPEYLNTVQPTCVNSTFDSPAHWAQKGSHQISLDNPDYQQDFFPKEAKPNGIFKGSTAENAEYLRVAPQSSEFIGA

For the compound `N#C/C(=C\c1ccc(O)c(O)c1)S(=O)(=O)c1cccs1` [Compound 743, (E)-3-(3,4-Dihydroxyphenyl)-2-[(thien-2-yl)sulfonyl]acrylonitrile], on EGFR, the IC50 is greater than 100 µM.

With `CC(C)(C)c1cc(/C=C(\C#N)S(=O)(=O)c2ccc(F)cc2)cc(C(C)(C)C)c1O` [Compound 740], the 50% inhibitory concentration (IC50) (at EGFR; in experiment [1]) was greater than 100 µM throughout.

Take `Cc1cc(/C=C(\C#N)S(=O)(=O)c2ccc(F)cc2)cc(C)c1O` [Compound 744]: the IC50 against EGFR is greater than 100 µM. On to `CC(C)(C)c1cc(/C=C(\C#N)S(=O)(=O)c2cccs2)cc(C(C)(C)C)c1O` [Compound 742], for which the results for the IC50 (on EGFR; in experiment [1]) were greater than 100 µM and 27.8 µM, respectively.

For `N#C/C(=C\c1ccc(O)cc1Cl)S(=O)(=O)NCc1ccccc1` [Compound 733], the 50% inhibitory concentration (IC50) is greater than 100 µM at EGFR and 83.5 µM in experiment [1]. In the same order, the values of `CC(C)c1cc(/C=C(\C#N)S(=O)(=O)Cc2cccc(C(F)(F)F)c2)cc(C(C)C)c1O` [Compound 736] are 100 µM and 22.7 µM.

In the case of `CC(C)c1cc(/C=C(\C#N)S(=O)(=O)c2ccc(F)cc2)cc(C(C)C)c1O` [Compound 741, (E)-3-(3,5-Diisopropyl-4-hydroxyphenyl)-2-(4-fluorophenylsulfonyl)acrylonitrile], the IC50 on EGFR came to 52.7 µM; in experiment [1] it was 13.9 µM. For `N#C/C(=C\c1ccc(O)cc1Cl)S(=O)(=O)NCCCc1ccccc1` [Compound 734], the IC50 was greater than 100 µM against EGFR and 21.7 µM in experiment [1]. For the compound `CC(C)(C)c1cc(/C=C(\C#N)S(=O)(=O)Cc2cccc(C(F)(F)F)c2)cc(C(C)(C)C)c1O` [Compound 735], inhibition in experiment [1] was half-maximal at 57.4 µM (IC50). As for `CC(C)c1cc(/C=C(\C#N)S(=O)(=O)c2cccs2)cc(C(C)C)c1O` [Compound 737], the IC50 at EGFR was determined as 77 µM; in experiment [1], 32 µM. Taken in the same sequence, the figures for `CC(C)(C)c1cc(/C=C(\C#N)S(=O)(=O)c2ccsc2)cc(C(C)(C)C)c1O` [Compound 746] were greater than 100 µM and 8.1 µM. `CC(C)c1cc(/C=C(\C#N)S(=O)(=O)/C(C#N)=C/c2cc(C(C)C)c(O)c(C(C)C)c2)cc(C(C)C)c1O` [Compound 745] showed a half-inhibitory concentration (IC50) at EGFR of less than 100 µM. Regarding `CC(C)c1cc(/C=C(\C#N)S(=O)(=O)c2ccccc2)cc(C(C)C)c1O` [Compound 731], the figures for the half-inhibitory concentration (IC50) (against EGFR; in experiment [1]) were 73.2 µM and 17.2 µM, respectively.

Consider `CC(C)c1cc(/C=C(\C#N)S(=O)(=O)c2ccsc2)cc(C(C)C)c1O` [Compound 738], for which the figures for the half-maximal inhibitory concentration (IC50) (against EGFR; in experiment [1]) were 79.2 µM and 36.4 µM, respectively. In the same order, the values of `Cc1cc(/C=C(\C#N)S(=O)(=O)Cc2cccc(C(F)(F)F)c2)cc(C)c1O` [Compound 739] are greater than 100 µM and greater than 100 µM. Taken in the same sequence, the figures for `CC(C)c1cc(/C=C(\C#N)S(=O)(=O)NCc2ccccc2)cc(C(C)C)c1O` [Compound 732] were 58 µM and 20.9 µM.
